From patent US10004701B2, “Methods and compositions for treating infection” (UNIVERSITY OF ROCHESTER, priority 2012, dated 2018)
Counter-ions that a name gives are not always drawn. Like-named read-outs stand apart in the source and are kept apart here. Where a SMILES comes first, the peptide text is derived from it. Bridges are numbered along the chain shown (N, C = ends). [ ]: non-standard residue; d: D form. The star is where a group is joined. Ileψ(thiazoline)Cys = CC[C@H](C)[C@H](N)C1=N[C@H](C(=O)*)CS1; dOrn = NCCC[C@@H](N)C(=O)O

Columns and labels:
Experiment in all cases: AK assay 384-well format, Prestwick library screening
[1] = tested on: E. faecium; assay type: cell-based, Enterococcus faecium; settings: Enterococcus faecium, 3 h, 50 μM final drug concentration
[2] = tested on: S. aureus strain USA300-0114; assay type: cell-based, Staphylococcus aureus; settings: Staphylococcus aureus, USA300, 3 h, 50 μM final drug concentration
[3] = tested on: K. pneumoniae; assay type: cell-based, Klebsiella pneumoniae; settings: Klebsiella pneumoniae, 3 h, 50 μM final drug concentration
[4] = tested on: A. baumannii strain 98-37-09; assay type: cell-based, Acinetobacter baumannii; settings: Acinetobacter baumannii, 983709, 3 h, 50 μM final drug concentration
[5] = tested on: P. aeruginosa; assay type: cell-based, Pseudomonas aeruginosa; settings: Pseudomonas aeruginosa, 3 h, 50 μM final drug concentration
[6] = tested on: E. cloacae; assay type: cell-based, Enterobacter cloacae; settings: Enterobacter cloacae, 3 h, 50 μM final drug concentration
[7] = tested on: E. coli; assay type: cell-based, Escherichia coli; settings: Escherichia coli, 3 h, 50 μM final drug concentration
[8] = planktonic, cutoff for positive-scoring molecules 3-fold increase, read-out: AK-based Prestwick Library Screening Results, E. faecium (fold increase in extracellular AK activity)
[9] = planktonic, cutoff for positive-scoring molecules 3-fold increase, read-out: AK-based Prestwick Library Screening Results, S. aureus (fold increase in extracellular AK activity)
[10] = planktonic, cutoff for positive-scoring molecules 3-fold increase, read-out: AK-based Prestwick Library Screening Results, K. pneumoniae (fold increase in extracellular AK activity)
[11] = planktonic, cutoff for positive-scoring molecules 3-fold increase, read-out: AK-based Prestwick Library Screening Results, A. baumannii (fold increase in extracellular AK activity)
[12] = planktonic, cutoff for positive-scoring molecules 3-fold increase, read-out: AK-based Prestwick Library Screening Results, P. aeruginosa (fold increase in extracellular AK activity)
[13] = planktonic, cutoff for positive-scoring molecules 3-fold increase, read-out: AK-based Prestwick Library Screening Results, E. cloacae (fold increase in extracellular AK activity)
[14] = planktonic, cutoff for positive-scoring molecules 3-fold increase, read-out: AK-based Prestwick Library Screening Results, E. coli (fold increase in extracellular AK activity)
[15] = planktonic E. faecium, cutoff for positive-scoring molecules 3-fold increase, read-out: AK-based Prestwick Library Screening Results, E. faecium (increase in extracellular AK activity)
[16] = planktonic S. aureus, cutoff for positive-scoring molecules 3-fold increase, read-out: AK-based Prestwick Library Screening Results, S. aureus (increase in extracellular AK activity)
[17] = planktonic K. pneumoniae, cutoff for positive-scoring molecules 3-fold increase, read-out: AK-based Prestwick Library Screening Results, K. pneumoniae (increase in extracellular AK activity)
[18] = planktonic A. baumannii, cutoff for positive-scoring molecules 3-fold increase, read-out: AK-based Prestwick Library Screening Results, A. baumannii (increase in extracellular AK activity)
[19] = planktonic P. aeruginosa, cutoff for positive-scoring molecules 3-fold increase, read-out: AK-based Prestwick Library Screening Results, P. aeruginosa (increase in extracellular AK activity)
[20] = planktonic E. cloacae, cutoff for positive-scoring molecules 3-fold increase, read-out: AK-based Prestwick Library Screening Results, E. cloacae (increase in extracellular AK activity)
[21] = planktonic E. coli, cutoff for positive-scoring molecules 3-fold increase, read-out: AK-based Prestwick Library Screening Results, E. coli (increase in extracellular AK activity)
[22] = cutoff for positive-scoring molecules 3-fold increase, read-out: AK-based Prestwick Library Screening Results, E. faecium (fold increase in extracellular AK activity)
[23] = cutoff for positive-scoring molecules 3-fold increase, read-out: AK-based Prestwick Library Screening Results, S. aureus (fold increase in extracellular AK activity)
[24] = cutoff for positive-scoring molecules 3-fold increase, read-out: AK-based Prestwick Library Screening Results, K. pneumoniae (fold increase in extracellular AK activity)
[25] = cutoff for positive-scoring molecules 3-fold increase, read-out: AK-based Prestwick Library Screening Results, A. baumannii (fold increase in extracellular AK activity)
[26] = cutoff for positive-scoring molecules 3-fold increase, read-out: AK-based Prestwick Library Screening Results, P. aeruginosa (fold increase in extracellular AK activity)
[27] = cutoff for positive-scoring molecules 3-fold increase, read-out: AK-based Prestwick Library Screening Results, E. cloacae (fold increase in extracellular AK activity)
[28] = cutoff for positive-scoring molecules 3-fold increase, read-out: AK-based Prestwick Library Screening Results, E. coli (fold increase in extracellular AK activity)

Row | Structure (SMILES) | fold induction at 50 µM [1, 8] | fold induction at 50 µM [2, 9] | fold induction at 50 µM [3, 10] | fold induction at 50 µM [4, 11] | fold induction at 50 µM [5, 12] | fold induction at 50 µM [6, 13] | fold induction at 50 µM [7, 14] | fold induction at 50 µM [1, 15] | fold induction at 50 µM [2, 16] | fold induction at 50 µM [3, 17] | fold induction at 50 µM [4, 18] | fold induction at 50 µM [5, 19] | fold induction at 50 µM [6, 20] | fold induction at 50 µM [7, 21] | also measured
1 | CC1(C)S[C@@H]2[C@H](NC(=O)[C@H](NC(=O)N3CCNC3=O)c3ccccc3)C(=O)N2[C@H]1C(=O)O [Azlocillin sodium salt] | 0.9 | 0.4 | 0.7 | 2.1 | 9.7 | 1 | 12.3 |  |  |  |  |  |  |  | 
2 | C[C@H]1[C@H](NC(=O)/C(=N\OC(C)(C)C(=O)O)c2csc(N)n2)C(=O)N1S(=O)(=O)O [Aztreonam] |  |  |  |  |  |  |  |  |  |  |  |  |  |  | fold induction at 50 µM ([1]; 384-well format, cutoff for positive-scoring molecules 3-fold increase, read-out: AK-based Prestwick Library Screening Results, E. faecium (increase in extracellular AK activity)): 1; fold induction at 50 µM ([2]; 384-well format, cutoff for positive-scoring molecules 3-fold increase, read-out: AK-based Prestwick Library Screening Results, S. aureus (increase in extracellular AK activity)): 0.6; fold induction at 50 µM ([3]; 384-well format, cutoff for positive-scoring molecules 3-fold increase, read-out: AK-based Prestwick Library Screening Results, K. pneumoniae (increase in extracellular AK activity)): 2.6; fold induction at 50 µM ([4]; 384-well format, cutoff for positive-scoring molecules 3-fold increase, read-out: AK-based Prestwick Library Screening Results, A. baumannii (increase in extracellular AK activity)): 5.4; fold induction at 50 µM ([5]; 384-well format, cutoff for positive-scoring molecules 3-fold increase, read-out: AK-based Prestwick Library Screening Results, P. aeruginosa (increase in extracellular AK activity)): 9.1; fold induction at 50 µM ([6]; 384-well format, cutoff for positive-scoring molecules 3-fold increase, read-out: AK-based Prestwick Library Screening Results, E. cloacae (increase in extracellular AK activity)): 18.4; fold induction at 50 µM ([7]; 384-well format, cutoff for positive-scoring molecules 3-fold increase, read-out: AK-based Prestwick Library Screening Results, E. coli (increase in extracellular AK activity)): 15.9
3 | CCOC(=O)OC(C)OC(=O)[C@@H]1N2C(=O)[C@@H](NC(=O)[C@H](N)c3ccccc3)[C@H]2SC1(C)C (stereo partly shown) [Bacampicillin hydrochloride] |  |  |  |  |  |  |  | 1.1 | 0.5 | 0.6 | 1.3 | 0.6 | 0.6 | 11.9 | 
4 | CC[C@H](C)[C@H](N)C1=N[C@H](C(=O)N[C@@H](CC(C)C)C(=O)N[C@H](CCC(=O)O)C(=O)N[C@H](C(=O)N[C@H]2CCCCNC(=O)[C@H](CC(N)=O)NC(=O)[C@@H](CC(=O)O)NC(=O)[C@H](Cc3cnc[nH]3)NC(=O)[C@@H](Cc3ccccc3)NC(=O)[C@H]([C@@H](C)CC)NC(=O)[C@@H](CCCN)NC2=O)[C@@H](C)CC)CS1 [Bacitracin] ({Ileψ(thiazoline)Cys}-L[dE]IK[dOrn]I[dF]H[dD]N; lactam 4-C) | 1.3 | 0.4 | 0.8 | 1.1 | 0.8 | 1.2 | 1 |  |  |  |  |  |  |  | 
5 | O=C(O)CCNC(=O)c1ccc(/N=N/c2ccc(O)c(C(=O)O)c2)cc1 [Balsalazide Sodium] | 0.9 | 0.4 | 0.7 | 0.5 | 0.5 | 0.4 | 0.5 |  |  |  |  |  |  |  | 
6 | CN(C)C(=O)Oc1cc(OC(=O)N(C)C)cc(C(O)CNC(C)(C)C)c1 (stereo not shown) [Bambuterol hydrochloride] |  |  |  |  |  |  |  | 1.1 | 1.2 | 0.9 | 1 | 1.2 | 1.2 | 1.3 | 
7 | CCC(=O)OCC(=O)[C@@]1(OC(=O)CC)[C@@H](C)C[C@H]2[C@@H]3CCC4=CC(=O)C=C[C@]4(C)[C@@]3(Cl)[C@@H](O)C[C@@]21C [Beclomethasone dipropionate] |  |  |  |  |  |  |  |  |  |  |  |  |  |  | fold induction at 50 µM [1, 22]: 1; fold induction at 50 µM [2, 23]: 0.5; fold induction at 50 µM [3, 24]: 0.9; fold induction at 50 µM [4, 25]: 1; fold induction at 50 µM [5, 26]: 1; fold induction at 50 µM [6, 27]: 1.5; fold induction at 50 µM [7, 28]: 1.1
8 | CCC1(C)CC(=O)NC(=O)C1 [Bemegride] |  |  |  |  |  |  |  |  |  |  |  |  |  |  | fold induction at 50 µM ([1]; planktonic, […], read-out: AK-based Prestwick Library Screening Results, E. faecium (fold increase in extracellular AK activity)): 0.9; fold induction at 50 µM ([2]; planktonic, […], read-out: AK-based Prestwick Library Screening Results, S. aureus (fold increase in extracellular AK activity)): 0.7; fold induction at 50 µM ([3]; planktonic, […], read-out: AK-based Prestwick Library Screening Results, K. pneumoniae (fold increase in extracellular AK activity)): 0.6; fold induction at 50 µM ([4]; planktonic, […], read-out: AK-based Prestwick Library Screening Results, A. baumannii (fold increase in extracellular AK activity)): 0.7; fold induction at 50 µM ([5]; planktonic, […], read-out: AK-based Prestwick Library Screening Results, P. aeruginosa (fold increase in extracellular AK activity)): 0.6; fold induction at 50 µM ([6]; planktonic, […], read-out: AK-based Prestwick Library Screening Results, E. cloacae (fold increase in extracellular AK activity)): 0.6; fold induction at 50 µM ([7]; planktonic, […], read-out: AK-based Prestwick Library Screening Results, E. coli (fold increase in extracellular AK activity)): 0.6
9 | NS(=O)(=O)c1cc2c(cc1C(F)(F)F)NC(Cc1ccccc1)NS2(=O)=O (stereo not shown) [Bendroflumethiazide] |  |  |  |  |  |  |  |  |  |  |  |  |  |  | fold induction at 50 µM [1, 22]: 1.2; fold induction at 50 µM [2, 23]: 1.3; fold induction at 50 µM [3, 24]: 1.1; fold induction at 50 µM [4, 25]: 1.3; fold induction at 50 µM [5, 26]: 1.1; fold induction at 50 µM [6, 27]: 1.5; fold induction at 50 µM [7, 28]: 1.3
10 | CC(Cc1cccc(C(F)(F)F)c1)NCCOC(=O)c1ccccc1 (stereo not shown) [Benfluorex hydrochloride] |  |  |  |  |  |  |  | 0.9 | 1.2 | 1.1 | 1 | 1.1 | 1.4 | 1.4 | 
